Assay results taken from US10479780B2, “Aminopyrazole derivatives” (Chugai Seiyaku Kabushiki Kaisha, priority 2015, dated 2019).
Where two headings read alike, the source gives them in different places.

Experiments:
Assay type in all cases: biochemical
human Src enzyme = target: T1, human Src enzyme (Homo sapiens, UniProt P12931); test: Src enzyme inhibitory activity (time-resolved fluorometry, biotinylated peptide phosphorylation); details: read-out: SRC_IC50
T1 construct: purchased Carna Biosciences, Inc. 08-173
Method in brief: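 Compounds were tested for blocking tyrosine phosphorylation of a biotinylated peptide substrate by recombinant human Src. Phosphorylated product was quantified by time-resolved fluorometry using europium cryptate and XL665 conjugates, and IC50 was calculated against the compound-free control.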

human Yes1 enzyme = target: T2, human Yes1 enzyme (Homo sapiens, UniProt P07947); test: Yes1 enzyme inhibitory activity (time-resolved fluorometry, biotinylated peptide phosphorylation); details: read-out: YES_IC50
T2 construct: made in house
Method in brief: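 Inhibition was expressed against a compound-free control to give IC50, using TR-FRET read-out (Eu-cryptate anti-pTyr antibody, streptavidin-XL665).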

human Lck enzyme = target: T3, human Lck enzyme (Homo sapiens, UniProt P06239); test: Lck enzyme inhibitory activity (time-resolved fluorometry, biotinylated peptide phosphorylation); details: read-out: LCK_IC50
T3 construct: purchased Carna Biosciences, Inc. 08-170
Method in brief: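 Readout pairs a europium cryptate-labelled anti-phosphotyrosine antibody with XL665-streptavidin, measured by time-resolved fluorescence. IC50 derived from percent inhibition against untreated controls.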

[1] = biotinylated peptide phosphorylation

T2 sequence (P07947 whole entry): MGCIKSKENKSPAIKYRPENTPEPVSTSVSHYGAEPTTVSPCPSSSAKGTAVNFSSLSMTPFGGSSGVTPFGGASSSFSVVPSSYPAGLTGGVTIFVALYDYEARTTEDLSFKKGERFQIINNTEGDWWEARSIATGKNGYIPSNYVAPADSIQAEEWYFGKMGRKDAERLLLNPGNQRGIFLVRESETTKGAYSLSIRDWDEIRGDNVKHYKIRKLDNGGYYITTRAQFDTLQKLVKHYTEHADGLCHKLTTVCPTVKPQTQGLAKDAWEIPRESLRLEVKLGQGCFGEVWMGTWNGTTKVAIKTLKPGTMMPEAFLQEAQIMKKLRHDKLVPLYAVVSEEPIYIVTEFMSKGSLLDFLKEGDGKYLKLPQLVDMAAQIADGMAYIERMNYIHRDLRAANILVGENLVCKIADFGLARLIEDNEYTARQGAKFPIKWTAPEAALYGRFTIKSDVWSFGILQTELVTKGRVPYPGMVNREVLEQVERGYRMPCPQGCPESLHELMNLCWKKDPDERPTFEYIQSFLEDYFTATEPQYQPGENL
T1 sequence (P12931 whole entry): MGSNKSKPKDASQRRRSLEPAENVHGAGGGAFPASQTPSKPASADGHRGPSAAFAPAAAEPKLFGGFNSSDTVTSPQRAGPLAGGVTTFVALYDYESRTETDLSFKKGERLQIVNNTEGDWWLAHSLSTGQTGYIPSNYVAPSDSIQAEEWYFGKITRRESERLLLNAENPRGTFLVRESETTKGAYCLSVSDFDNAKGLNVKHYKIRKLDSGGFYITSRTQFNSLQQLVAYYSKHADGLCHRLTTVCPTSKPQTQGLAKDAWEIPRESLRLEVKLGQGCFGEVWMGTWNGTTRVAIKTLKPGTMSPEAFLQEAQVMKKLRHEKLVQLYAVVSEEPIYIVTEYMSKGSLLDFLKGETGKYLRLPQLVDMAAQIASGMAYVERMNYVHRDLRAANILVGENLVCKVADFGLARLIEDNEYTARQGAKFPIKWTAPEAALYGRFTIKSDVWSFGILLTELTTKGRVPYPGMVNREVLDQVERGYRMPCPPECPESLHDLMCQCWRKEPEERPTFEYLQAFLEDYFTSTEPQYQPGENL
T3 sequence (P06239 whole entry): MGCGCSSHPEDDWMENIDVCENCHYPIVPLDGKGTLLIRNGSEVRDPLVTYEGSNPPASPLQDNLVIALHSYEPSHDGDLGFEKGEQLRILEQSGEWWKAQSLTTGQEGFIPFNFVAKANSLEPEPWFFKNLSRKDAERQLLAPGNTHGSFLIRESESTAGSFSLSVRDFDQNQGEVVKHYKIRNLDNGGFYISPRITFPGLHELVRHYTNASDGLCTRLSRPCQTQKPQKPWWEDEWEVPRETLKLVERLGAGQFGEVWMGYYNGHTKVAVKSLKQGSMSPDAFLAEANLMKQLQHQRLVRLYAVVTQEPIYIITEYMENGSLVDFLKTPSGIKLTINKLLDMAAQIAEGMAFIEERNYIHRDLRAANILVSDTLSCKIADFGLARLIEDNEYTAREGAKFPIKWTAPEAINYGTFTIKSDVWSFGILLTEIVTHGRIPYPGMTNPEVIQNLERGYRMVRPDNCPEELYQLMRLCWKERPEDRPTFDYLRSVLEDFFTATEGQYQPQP

| SMILES | IC50 (human Src enzyme; [1]) [µM] | IC50 (human Yes1 enzyme; [1]) [µM] | IC50 (human Lck enzyme; [1]) [µM] | IC50 (human Src enzyme) [µM] | IC50 (human Yes1 enzyme) [µM] | IC50 (human Lck enzyme) [µM] |
| --- | --- | --- | --- | --- | --- | --- |
| Cc1cc(Oc2c(F)cccc2F)ncc1-n1ncc(C(=O)c2cc3cc(OCC(F)F)c(NS(=O)(=O)c4cccc(Cl)n4)cc3[nH]2)c1N [Example 5-1-572, N-[2-[5-amino-1-[6-(2,6-difluorophenoxy)-4-methylpyridin-3-yl]pyrazole-4-carbonyl]-5-(2,2-difluoroethoxy)-1H-indol-6-yl]-6-chloropyridine-2-sulfonamide] | 0.69 | 0.0035 | 0.021 | – | – | – |
| Cc1cc2cc(C(=O)c3cnn(-c4ccc(Oc5ccccc5F)cc4C)c3N)[nH]c2cc1NS(=O)(=O)c1cccc(F)c1 [Example 5-1-550, N-[2-[5-amino-1-[4-(2-fluorophenoxy)-2-methylphenyl]pyrazole-4-carbonyl]-5-methyl-1H-indol-6-yl]-3-fluorobenzenesulfonamide] | 0.49 | 0.0051 | 0.072 | – | – | – |
| Cc1cnc(F)c(S(=O)(=O)Nc2cc3[nH]c(C(=O)c4cnn(-c5cnc(Oc6ccccc6F)cc5C)c4N)cc3cc2F)c1 [Example 5-1-524, N-[2-[5-amino-1-[6-(2-fluorophenoxy)-4-methylpyridin-3-yl]pyrazole-4-carbonyl]-5-fluoro-1H-indol-6-yl]-2-fluoro-5-methylpyridine-3-sulfonamide] | 0.58 | 0.0057 | 0.21 | – | – | – |
| Cc1cc(Oc2c(F)cccc2F)ncc1-n1ncc(C(=O)c2cc3cc(F)c(NC4CCN(S(C)(=O)=O)CC4)cc3[nH]2)c1N [Example 5-1-113, [5-amino-1-[6-(2,6-difluorophenoxy)-4-methylpyridin-3-yl]pyrazol-4-yl]-[5-fluoro-6-[(1-methylsulfonylpiperidin-4-yl)amino]-1H-indol-2-yl]methanone] | – | – | – | 0.041 | 0.0039 | 0.0033 |
| Cc1cc(Oc2ccccc2F)ccc1-n1ncc(C(=O)c2cc3cc(F)c(C4CCN(C(C)C)CC4)cc3[nH]2)c1N [Example 4-2-010, [5-amino-1-[4-(2-fluorophenoxy)-2-methylphenyl]pyrazol-4-yl]-[5-fluoro-6-(1-propan-2-ylpiperidin-4-yl)-1H-indol-2-yl]methanone] | 0.0047 | 0.0012 | 0.0019 | – | – | – |
| Cc1cc(-n2ncc(C(=O)c3cc4cc(OCC(F)F)c(N)cc4[nH]3)c2N)ccc1Oc1ccccc1F [Example 5-1-162, [6-amino-5-(2,2-difluoroethoxy)-1H-indol-2-yl]-[5-amino-1-[4-(2-fluorophenoxy)-3-methylphenyl]pyrazol-4-yl]methanone] | – | – | – | 0.48 | 0.0021 | 0.12 |
| Cc1cc(Oc2ccccc2F)ccc1-n1ncc(C(=O)c2cc3cc(N4CCOCC4)c(N4CCC(N5CCOCC5)CC4)cc3[nH]2)c1N [Example 5-1-124, [5-amino-1-[4-(2-fluorophenoxy)-2-methylphenyl]pyrazol-4-yl]-[5-morpholin-4-yl-6-(4-morpholin-4-ylpiperidin-1-yl)-1H-indol-2-yl]methanone] | – | – | – | 0.07 | 0.00099 | 0.01 |
| Cc1cc(-n2ncc(C(=O)c3cc4cc(OC5CCN(C6CCCC6)CC5)c(Br)cc4[nH]3)c2N)ccc1Oc1ccccc1F [Example 5-1-216, [5-amino-1-[4-(2-fluorophenoxy)-3-methylphenyl]pyrazol-4-yl]-[6-bromo-5-(1-cyclopentylpiperidin-4-yl)oxy-1H-indol-2-yl] methanone] | – | – | – | 1 | 0.0017 | 0.047 |
| Cc1cc2cc(C(=O)c3cnn(-c4ccc(Oc5ccccc5F)cc4C)c3N)[nH]c2cc1NS(=O)(=O)N1CCOCC1 [Example 4-2-105, N-[2-[5-amino-1-[4-(2-fluorophenoxy)-2-methylphenyl]pyrazole-4-carbonyl]-5-methyl-1H-indol-6-yl]morpholine-4-sulfonamide] | 0.1 | 0.00036 | 0.024 | – | – | – |
| Cc1cc(Oc2ccccc2F)ccc1-n1ncc(C(=O)c2cc3cc(N4CCOCC4)c(NC4CCN(S(C)(=O)=O)CC4)cc3[nH]2)c1N [Example 5-1-129, [5-amino-1-[4-(2-fluorophenoxy)-2-methylphenyl]pyrazol-4-yl]-[6-[(1-methylsulfonylpiperidin-4-yl)amino]-5-morpholin-4-yl-1H-indol-2-yl]methanone] | – | – | – | 0.0073 | 0.00061 | 0.0046 |
| Cc1cc2cc(C(=O)c3cnn(-c4ccc(Oc5cccc(F)c5F)cc4C)c3N)[nH]c2cc1NS(=O)(=O)CCCF [Example 4-2-069, N-[2-[5-amino-1-[4-(2,3-difluorophenoxy)-2-methylphenyl]pyrazole-4-carbonyl]-5-methyl-1H-indol-6-yl]-3-fluoropropane-1-sulfonamide] | 0.067 | 0.001 | 0.022 | – | – | – |
| Cc1cc(Oc2c(F)cccc2F)ncc1-n1ncc(C(=O)c2cc3cc(OCC(F)F)c(NS(C)(=O)=O)cc3[nH]2)c1N [Example 4-24-031, N-[2-[5-amino-1-[6-(2,6-difluorophenoxy)-4-methylpyridin-3-yl]pyrazole-4-carbonyl]-5-(2,2-difluoroethoxy)-1H-indol-6-yl]methanesulfonamide] | 0.021 | 0.0012 | 0.0067 | – | – | – |
| Cc1cc(Oc2ccccc2F)ncc1-n1ncc(C(=O)c2cc3cc(OCC(F)F)c(N4CCOC4=O)cc3[nH]2)c1N [Example 4-25-016, 3-{2-{5-amino-1-[6-(2-fluorophenoxy)-4-methylpyridin-3-yl]pyrazole-4-carbonyl}-5-(2,2-difluoroethoxy)-1H-indol-6-yl}-1,3-oxazolidin-2-one] | 0.013 | 0.00048 | 0.0015 | – | – | – |
| Cc1cc2cc(C(=O)c3cnn(-c4cnc(Oc5ccccc5F)cc4C)c3N)[nH]c2cc1NS(=O)(=O)c1c(F)cc(F)cc1F [Example 5-1-501, N-[2-[5-amino-1-[6-(2-fluorophenoxy)-4-methylpyridin-3-yl]pyrazole-4-carbonyl]-5-methyl-1H-indol-6-yl]-2,4,6-trifluorobenzenesulfonamide] | 0.57 | 0.0048 | 0.19 | – | – | – |
| Cc1cc(Oc2ccccc2F)ncc1-n1ncc(C(=O)c2cc3cc(OC(F)F)c(N4CCCC4=O)cc3[nH]2)c1N [Example 4-25-014, 1-[2-[5-amino-1-[6-(2-fluorophenoxy)-4-methylpyridin-3-yl]pyrazole-4-carbonyl]-5-(difluoromethoxy)-1H-indol-6-yl]pyrrolidin-2-one] | 0.026 | 0.0011 | 0.0022 | – | – | – |
| Cc1cc(Oc2c(F)cccc2Cl)ncc1-n1ncc(C(=O)c2cc3cc(F)c(NS(=O)(=O)CCCF)cc3[nH]2)c1N [Example 4-2-024, N-[2-[5-amino-1-[6-(2-chloro-6-fluorophenoxy)-4-methylpyridin-3-yl]pyrazole-4-carbonyl]-5-fluoro-1H-indol-6-yl]-3-fluoropropane-1-sulfonamide] | 0.06 | 0.0021 | 0.012 | – | – | – |
| Cc1cc(Oc2cccc(Cl)c2)ncc1-n1ncc(C(=O)c2cc3cc(F)c(NS(=O)(=O)C4CC4)cc3[nH]2)c1N [Example 4-7-016, N-[2-[5-amino-1-[6-(3-chlorophenoxy)-4-methylpyridin-3-yl]pyrazole-4-carbonyl]-5-fluoro-1H-indol-6-yl]cyclopropanesulfonamide] | 0.21 | 0.0046 | 0.11 | – | – | – |
